Results published in PubChem BioAssay AID256 (DTP/NCI, 2004).
Where “and” joins values, the source holds several entries; their conditions need not be identical. Equal entries are not always repeated. Toxic doses and inconclusive results are not listed. How the source made its calls: active means survival T/C of 150% or more; inactive means T/C below 125% in these data.

Test system: CD2F1 mice, L1210 leukemia ip, survival T/C
Assay: NCI In Vivo Anticancer Drug Screen. Data for tumor model L1210 Leukemia (intraperitoneal) in CD2F1 (CDF1) mice
Settings: endpoint: mean survival time, higher = longer survival
Procedure, shortened: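 Transplantable tumor in mice; compound-treated vs vehicle-treated groups. Read-out = treated/control ratio of the measured endpoint.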

[1] = dose: 25.0 mg/kg/injection, schedule: Q01DX009 (ip), vehicle: saline with Tween-80
[2] = dose: 50.0 mg/kg/injection, schedule: Q01DX009 (ip), vehicle: saline with Tween-80
[3] = dose: 100.0 mg/kg/injection, schedule: Q01DX009 (ip), vehicle: saline with Tween-80
[4] = dose: 100.0 mg/kg/injection, schedule: Q04DX003 (ip), vehicle: saline with Tween-80
[5] = dose: 200.0 mg/kg/injection, schedule: Q01DX009 (ip), vehicle: saline with Tween-80
[6] = dose: 200.0 mg/kg/injection, schedule: Q04DX003 (ip), vehicle: saline with Tween-80
[7] = dose: 400.0 mg/kg/injection, schedule: Q01DX009 (ip), vehicle: saline with Tween-80
[8] = dose: 400.0 mg/kg/injection, schedule: Q04DX003 (ip), vehicle: saline with Tween-80
[9] = dose: 12.5 mg/kg/injection, schedule: Q01DX001 (ip), vehicle: saline

Measured: T/C

CCOC(C(=O)OC1CCN(C)CC1)(c1ccccc1)c1ccccc1
inactive: [1] 98 % of control | [2] 98 % of control | [3] 93 % of control

CCCCCCCCCCCC(=O)NC1CC(O[C@H]2C[C@](O)(C(=O)CO)Cc3c(O)c4c(c(O)c32)C(=O)c2c(OC)cccc2C4=O)OC(C)C1O (stereo partly drawn)
inactive: dose: 1.5 mg/kg/injection, schedule: Q01DX009 (ip), vehicle: saline with Tween-80 108 % of control | dose: 1.5 mg/kg/injection, schedule: Q01DX009 (ip), vehicle: saline 104 % of control | dose: 3.0 mg/kg/injection, schedule: Q01DX009 (ip), vehicle: saline with Tween-80 98 % of control | dose: 3.0 mg/kg/injection, schedule: Q01DX009 (ip), vehicle: saline 113 % of control | dose: 6.0 mg/kg/injection, schedule: Q01DX009 (ip), vehicle: saline with Tween-80 105 % of control | dose: 6.0 mg/kg/injection, schedule: Q01DX009 (ip), vehicle: saline 113 % of control | dose: 6.25 mg/kg/injection, schedule: Q01DX009 (ip), vehicle: distilled water + Tween-80 105 % of control | dose: 12.0 mg/kg/injection, schedule: Q01DX009 (ip), vehicle: saline with Tween-80 107 % of control | dose: 12.5 mg/kg/injection, schedule: Q01DX009 (ip), vehicle: distilled water + Tween-80 105 % of control | dose: 24.0 mg/kg/injection, schedule: Q01DX009 (ip), vehicle: saline with Tween-80 112 % of control | dose: 24.0 mg/kg/injection, schedule: Q01DX009 (ip), vehicle: saline 116 % of control | dose: 25.0 mg/kg/injection, schedule: Q01DX009 (ip), vehicle: distilled water + Tween-80 112 % of control | dose: 48.0 mg/kg/injection, schedule: Q01DX009 (ip), vehicle: saline with Tween-80 97 % of control | dose: 50.0 mg/kg/injection, schedule: Q01DX009 (ip), vehicle: distilled water + Tween-80 116 % of control

CC([NH-])Cc1ccccc1.CC([NH-])Cc1ccccc1.[Cl][Pt+2][Cl] (stereo not drawn)
inactive: dose: 3.13 mg/kg/injection, schedule: Q04DX003 (ip), vehicle: distilled water + Tween-80 96 % of control | dose: 6.25 mg/kg/injection, schedule: Q04DX003 (ip), vehicle: distilled water + Tween-80 96 % of control | dose: 12.5 mg/kg/injection, schedule: Q04DX003 (ip), vehicle: distilled water + Tween-80 96 % of control | dose: 25.0 mg/kg/injection, schedule: Q04DX003 (ip), vehicle: distilled water + Tween-80 86 % of control | dose: 50.0 mg/kg/injection, schedule: Q04DX003 (ip), vehicle: distilled water + Tween-80 86 % of control | dose: 100.0 mg/kg/injection, schedule: Q04DX003 (ip), vehicle: distilled water + Tween-80 96 % of control | dose: 200.0 mg/kg/injection, schedule: Q04DX003 (ip), vehicle: distilled water + Tween-80 89 % of control

O=C(O)C(c1ccccc1)C(F)(F)F (stereo not drawn)
inactive: [3] 95 % of control | [4] 108 % of control | [5] 105 % of control | [6] 94 % of control | [7] 94 % of control | [8] 92 % of control

CCOC(=O)/C=C/C(C(=O)OCC)C(=O)OCC
inactive: [4] 103 % of control | [6] 97 % of control | [8] 101 % of control

CC=C1C=C(C(C)(C)C)C(=O)C(C(C)(C)C)=C1
inactive: dose: 25.0 mg/kg/injection, schedule: Q01DX009 (ip), vehicle: Klucel (hydroxypropylcellulose) (HPC) 90 % of control | dose: 50.0 mg/kg/injection, schedule: Q01DX009 (ip), vehicle: Klucel (hydroxypropylcellulose) (HPC) 102 % of control | dose: 100.0 mg/kg/injection, schedule: Q01DX009 (ip), vehicle: Klucel (hydroxypropylcellulose) (HPC) 98 % of control

COc1ccccc1N=Nc1c(O)n(-c2ccccc2OC)c(=S)n(-c2ccc(C)cc2)c1=O
inactive: dose: 25.0 mg/kg/injection, schedule: Q04DX002 (ip), vehicle: saline with Tween-80 90 % of control | dose: 50.0 mg/kg/injection, schedule: Q04DX002 (ip), vehicle: saline with Tween-80 90 % of control | dose: 100.0 mg/kg/injection, schedule: Q04DX002 (ip), vehicle: saline with Tween-80 90 % of control

O=C1CC(=Nc2ccc([N+](=O)[O-])cc2)NN1c1c(Cl)cc(Cl)cc1Cl
inactive: [4] 101 % of control | [6] 97 % of control | [8] 97 % of control

CCCCCCCCCCCCCCCCCS(=O)S(=O)O (stereo not drawn)
inactive: [4] 98 % of control | [6] 94 % of control | [8] 93 % of control

NC(=O)OCC#CCN1CCCC1
inactive: dose: 5.0 mg/kg/injection, schedule: Q01DX009 (ip), vehicle: saline with Tween-80 102 % of control | dose: 10.0 mg/kg/injection, schedule: Q01DX009 (ip), vehicle: saline with Tween-80 103 % of control | dose: 20.0 mg/kg/injection, schedule: Q01DX009 (ip), vehicle: saline with Tween-80 100 % of control

Cc1ccc([N+](=O)[O-])cc1NC(=O)NNC(=O)CNC(=O)NCc1ccco1
inactive: [3] 91 % of control | [5] 89 % of control | [7] 97 % of control

CN(CCCCN(C)CCOS(C)(=O)=O)CCOS(C)(=O)=O
active: [9] 150 % of control | dose: 25.0 mg/kg/injection, schedule: Q01DX001 (ip), vehicle: saline 156 % of control
inactive: dose: 0.4 mg/kg/injection, schedule: Q01DX009 (ip), vehicle: saline 112 % of control | dose: 0.8 mg/kg/injection, schedule: Q01DX009 (ip), vehicle: saline 115 % of control | dose: 3.6 mg/kg/injection, schedule: Q01DX001 (ip), vehicle: saline 110 % of control | dose: 4.0 mg/kg/injection, schedule: Q01DX009 (ip), vehicle: saline 103 % of control | dose: 8.3 mg/kg/injection, schedule: Q01DX001 (ip), vehicle: saline 118 % of control

Oc1ccc(C(c2ccc(O)cc2)C(Cl)(Cl)Cl)cc1
inactive: dose: 100.0 mg/kg/injection, schedule: Q04DX003 (ip), vehicle: Klucel (hydroxypropylcellulose) (HPC) 101 % of control | dose: 200.0 mg/kg/injection, schedule: Q04DX003 (ip), vehicle: Klucel (hydroxypropylcellulose) (HPC) 101 % of control | dose: 400.0 mg/kg/injection, schedule: Q04DX003 (ip), vehicle: Klucel (hydroxypropylcellulose) (HPC) 93 % of control

Nc1c(Cl)cc(Cl)c(-c2c(Cl)cc(Cl)c(N)c2Cl)c1Cl
inactive: dose: 12.5 mg/kg/injection, schedule: Q01DX009 (ip), vehicle: other 100 % of control | dose: 25.0 mg/kg/injection, schedule: Q01DX009 (ip), vehicle: other 101 % of control | dose: 50.0 mg/kg/injection, schedule: Q01DX009 (ip), vehicle: other 101 % of control | dose: 100.0 mg/kg/injection, schedule: Q01DX009 (ip), vehicle: other 97 % of control | dose: 200.0 mg/kg/injection, schedule: Q01DX009 (ip), vehicle: other 94 % of control

CS(=O)(=O)c1ncc(Br)cn1
inactive: dose: 3.12 mg/kg/injection, schedule: Q01DX009 (ip), vehicle: saline with Tween-80 101 % of control | dose: 3.13 mg/kg/injection, schedule: Q01DX009 (ip), vehicle: saline with Tween-80 101 % of control | dose: 6.25 mg/kg/injection, schedule: Q01DX009 (ip), vehicle: saline with Tween-80 101 % of control and 106 % of control | dose: 12.5 mg/kg/injection, schedule: Q01DX009 (ip), vehicle: saline with Tween-80 101 % of control and 102 % of control | [1] 95 % of control and 107 % of control | [2] 103 % of control and 104 % of control | [3] 104 % of control and 108 % of control

CC(=O)Nc1cc2c3c(c1)CCN3CCC2
inactive: dose: 3.13 mg/kg/injection, schedule: Q01DX001 (ip), vehicle: saline 100 % of control | dose: 6.25 mg/kg/injection, schedule: Q01DX001 (ip), vehicle: saline 113 % of control | [9] 112 % of control

COc1ccc(Cl)cc1N
inactive: [4] 94 % of control | [6] 92 % of control | [8] 96 % of control

CCCCCCCCCCC(=O)N1CCOCC1
inactive: [2] 87 % of control | [3] 96 % of control

COc1ccc(OC)c(/C=C/c2cnnc3ccccc23)c1
inactive: dose: 18.75 mg/kg/injection, schedule: Q04DX003 (ip), vehicle: Klucel (hydroxypropylcellulose) (HPC) 102 % of control | dose: 37.5 mg/kg/injection, schedule: Q04DX003 (ip), vehicle: Klucel (hydroxypropylcellulose) (HPC) 104 % of control | dose: 75.0 mg/kg/injection, schedule: Q04DX003 (ip), vehicle: Klucel (hydroxypropylcellulose) (HPC) 114 % of control | dose: 150.0 mg/kg/injection, schedule: Q04DX003 (ip), vehicle: Klucel (hydroxypropylcellulose) (HPC) 104 % of control | dose: 300.0 mg/kg/injection, schedule: Q04DX003 (ip), vehicle: Klucel (hydroxypropylcellulose) (HPC) 108 % of control

CN(C)[C-]=O.[C-]#[O+].[C-]#[O+].[Fe+6].[c-]1[c-][c-][cH-][c-]1
inactive: dose: 75.0 mg/kg/injection, schedule: Q01DX001 (ip), vehicle: other 94 % of control | dose: 150.0 mg/kg/injection, schedule: Q01DX001 (ip), vehicle: other 88 % of control
